Experimental findings from ChEMBL document CHEMBL2151015, “Discovery of a potent, selective, and orally bioavailable acidic 11β-hydroxysteroid dehydrogenase type 1 (11β-HSD1) inhibitor: discovery of 2-[(3S)-1-[5-(cyclohexylcarbamoyl)-6-propylsulfanylpyridin-2-yl]-3-piperidyl]acetic acid (AZD4017)” (J Med Chem, 2012) are described below.

Data set [1] can be described thus: Octanol-buffer partition coefficient, log D of the compound after 30 mins by shake flask method at pH 7.4.
Data set [2] in a line: Fraction unbound in rat plasma after 18 to 19 hrs by equilibrium dialysis. The format is ADME, cell-free. Background: Equilibrium dialysis compares concentrations on both sides of a semipermeable membrane.
Data set [3] is described as follows: Intrinsic clearance in rat hepatocytes assessed per 10^6 cells.
A short description of data set [4]: Oral bioavailability in rat. The settings on record: in vivo. The format is ADME, organism-based.
The nature of data set [5]: in vivo. The settings on record: rat.
The nature of data set [6]: Aqueous solubility of the compound after 24 hrs by LC-UV analysis at pH 7.4. The format is physicochemical. The settings on record: aqueous medium.
Data set [7] is described as follows: Apparent permeability across human Caco2 cells. The format is ADME, cell-based. To be noted: Caco-2. On the technique in general: Caco-2 monolayers are a common model of the intestinal barrier.
A short description of data set [8]: Cmax in po dosed Sprague-Dawley rat measured up to 24 hrs. To be noted: in vivo. The format is ADME, organism-based. Details: route oral.
Data set [9] is described as follows: Cmax in po dosed Sprague-Dawley rat pre-dosed with ABT administered 2 hrs […] measured up to 24 hrs. The format is ADME, organism-based. Details: route oral. The settings on record: in vivo.
Data set [10] in a line: AUC (0 to t) in po dosed Sprague-Dawley rat measured up to 24 hrs. To be noted: plasma. Details: time < 24 hr, route oral. The format is ADME, organism-based.
The nature of data set [11]: AUC (0 to t) in po dosed Sprague-Dawley rat pre-dosed with ABT administered 2 hrs […] measured up to 24 hrs. The format is ADME, organism-based. Details: time < 24 hr, route oral. The settings on record: plasma.
Data set [12] is described as follows: Clearance in po dosed Sprague-Dawley rat measured up to 24 hrs. To be noted: in vivo.
The nature of data set [13]: Clearance in po dosed Sprague-Dawley rat pre-dosed with ABT administered 2 hrs prior to ABT administration measured up to 24 hrs. To be noted: in vivo.
In data set [14] the target is 11-beta-hydroxysteroid dehydrogenase 1 (Homo sapiens, UniProt P28845). Put plainly: biochemical.
Chain of 11-beta-hydroxysteroid dehydrogenase 1 (P28845 whole entry): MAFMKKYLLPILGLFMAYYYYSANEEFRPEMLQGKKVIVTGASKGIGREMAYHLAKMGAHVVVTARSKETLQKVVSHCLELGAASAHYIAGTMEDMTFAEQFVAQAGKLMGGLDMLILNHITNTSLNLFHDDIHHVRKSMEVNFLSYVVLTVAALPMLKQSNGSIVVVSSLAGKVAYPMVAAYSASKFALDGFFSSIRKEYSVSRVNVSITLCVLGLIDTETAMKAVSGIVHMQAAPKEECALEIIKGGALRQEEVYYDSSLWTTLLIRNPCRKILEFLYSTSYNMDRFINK
Description: Inhibition of N-terminal His6-tagged full length human 11betaHSD1 expressed in baculovirus infected cells using cortisone as substrate after 25 mins by HTRF assay

Values after ≈ are worked out from the molar mass of the structure shown.

Turning to `CCCNc1nc(N2CCC[C@@H](CC(=O)O)C2)ccc1C(=O)NC1CCCCC1`, in [1] (octanol/buffer), the logD – broadly, lipophilicity at a set pH, counting ionised and neutral species – at 0.5 h amounted to 2.3. Moreover, the fraction unbound (usually free concentration divided by total concentration) in data set [2] turned out to be 0.029. Also, in data set [3], the hepatocyte CLint (as a rule, a measure of how fast metabolising enzymes remove a compound, apart from limits set by blood flow) was determined as 7 µL/min/1e6 cells. The bioavailability – broadly, dose-corrected exposure relative to a reference, in per cent – in data set [4] is 72%. Also, the clearance (as a rule, a measure of how efficiently the substance is removed, as volume per time) in data set [5] amounted to 4 mL/min/kg.

For the compound `CCCSc1nc(NC[C@H]2CC[C@H](C(=O)O)CC2)ccc1C(=O)NC1CCCCC1`, the logD at 0.5 h in data set [1] (octanol/buffer) came to 2.6. This compound also displayed a fraction unbound in data set [2] of 0.015. Further, the hepatocyte CLint in [3] was found to be 8 µL/min/1e6 cells. In [4], the bioavailability was 81%. Besides, the clearance in data set [5] came to 8 mL/min/kg.

Consider `CCCSc1nc(Oc2ccc(CC(=O)O)cc2)ccc1C(=O)NC1CCCCC1`, for which the logD at 0.5 h in [1] (octanol/buffer) came out at 1.8. The same compound registered a fraction unbound in data set [2] of 0.003. In [3], this compound yielded a hepatocyte CLint of under 2 µL/min/1e6 cells.

For the compound `CCCSc1ncccc1C(=O)N[C@@H]1[C@@H]2CC3C[C@H]1C[C@@](O)(C3)C2`, the logD at 0.5 h in data set [1] (octanol/buffer) came to 2.3. The compound further had a fraction unbound in data set [2] of over 0.5. Also, the hepatocyte CLint in data set [3] was 49 µL/min/1e6 cells. This compound also came in with a bioavailability in [4] of 11%. In addition, in data set [5], the clearance came to 110 mL/min/kg.

Turning to `CCCSc1nc(N2CCC(CC(=O)O)CC2)ccc1C(=O)NC1CCCCC1`, in [1] (octanol/buffer), the logD at 0.5 h came to 2. In addition, the fraction unbound in [2] was 0.032. This compound also gave a hepatocyte CLint in [3] of 6 µL/min/1e6 cells. Besides, in data set [4], the bioavailability is 90%. This compound gave a clearance in data set [5] of 4 mL/min/kg.

As for `CCCCc1nc(N2CCC[C@@H](CC(=O)O)C2)ccc1C(=O)NC1CCCCC1`, the logD at 0.5 h in [1] (octanol/buffer) is 1.6. Besides, in data set [2], the fraction unbound is 0.06. Moreover, the hepatocyte CLint in data set [3] is under 2 µL/min/1e6 cells. Also, the bioavailability in data set [4] was determined as 57%. In addition, in data set [5], the clearance stood at 4 mL/min/kg.

In [1] (octanol/buffer), `CCCSc1ncccc1C(=O)NC1CCCCC1` registered a logD at 0.5 h of 3.2. This compound also showed a fraction unbound in [2] of 0.13. Besides, the solubility (commonly the dissolved amount per volume that the medium holds) at 24 h in data set [6] came out at 82 µM (≈ 22.8 µg/mL). In data set [7], the Papp (usually the rate of passage across a membrane or cell layer, normalised by area and donor concentration) was found to be 27 ×10⁻⁶ cm/s. Moreover, the bioavailability in [4] came out at 0%. The Cmax (in general, the peak of the concentration-time curve) came out at 39 ng/mL in data set [8] and 514 ng/mL in data set [9]. The figures for the AUC(0-t) at 24 h in data set [10] and in data set [11] were 80 ng·h/mL and 2510 ng·h/mL, respectively.

In data set [1] (octanol/buffer), `CCCSc1nc(N2CCCCC2C(=O)O)ccc1C(=O)NC1CCCCC1` (stereo not given) returned a logD at 0.5 h of 1.4. The compound also came in with a fraction unbound in [2] of 0.019. Besides, the hepatocyte CLint in [3] turned out to be 10 µL/min/1e6 cells. Moreover, the bioavailability in data set [4] was over 100%. Further, in data set [5], the clearance was 12 mL/min/kg.

Regarding `CCCSc1nc(N2CCC(C(=O)O)CC2)ccc1C(=O)NC1CCCCC1`, in [1] (octanol/water), the logD at 0.5 h came to 1.6. Besides, in [2], the fraction unbound is 0.03. In [3], this compound came in with a hepatocyte CLint of under 2 µL/min/1e6 cells. The bioavailability in data set [4] is over 100%. The compound also came in with a clearance in data set [5] of 8 mL/min/kg.

`CCCSc1ncccc1C(=O)N1CCCC1c1ccncc1` (stereo not given): the logD at 0.5 h in data set [1] (octanol/buffer) is 2. Further, in data set [2], the fraction unbound is 0.13. The compound further showed an intrinsic clearance (hepatocyte CLint) in [3] of 120 µL/min/1e6 cells. This compound displayed a bioavailability in data set [4] of 0%. The clearance in data set [5] stood at 39 mL/min/kg.

The compound `CCCSc1ncccc1C(=O)N(C)C1CCOCC1` displayed a logD at 0.5 h in data set [1] (octanol/buffer) of 1.6. The compound further yielded a fraction unbound in [2] of 0.49. Further, in data set [3], the intrinsic clearance (hepatocyte CLint) was found to be 90 µL/min/1e6 cells. Also, the bioavailability in data set [4] turned out to be 0%. The clearance in data set [5] is 46 mL/min/kg.

As for `CCCSc1nc(Oc2cccc(CCC(=O)O)c2)ccc1C(=O)NC1CCCCC1`, in [1] (octanol/buffer), the logD at 0.5 h worked out at 1.7. This compound also returned a fraction unbound in data set [2] of 0.006. Also, in [3], the hepatocyte CLint is 15 µL/min/1e6 cells.

On to `O=S(=O)(Cc1c(F)cccc1F)N1CCN(c2ncccc2C(F)(F)F)CC1`, for which, in data set [1] (octanol/buffer), the logD at 0.5 h was 3.9. The same compound displayed a fraction unbound in [2] of 0.005. Moreover, in data set [6], the solubility at 24 h stood at 2 µM (≈ 0.843 µg/mL). Also, the hepatocyte CLint in [3] stood at 272 µL/min/1e6 cells. The Papp in data set [7] worked out at 10 ×10⁻⁶ cm/s. This compound came in with a bioavailability in data set [4] of 0%. In addition, the CL/F – broadly, the apparent clearance, not corrected for the fraction that reaches the circulation – at 24 h in data set [12] was 20 mL/min/kg. Also, the CL/F in data set [13] turned out to be 14 mL/min/kg.

With `CCCSc1ncccc1C(=O)N(C)[C@@H]1[C@@H]2CC3C[C@H]1C[C@@](O)(C3)C2`, in data set [1] (octanol/water), the logD at 0.5 h turned out to be 2.5. The fraction unbound in [2] is 0.2. Besides, in data set [3], the hepatocyte CLint came to 140 µL/min/1e6 cells. For the same compound, the bioavailability in [4] stood at 0%. This compound also yielded a clearance in data set [5] of 24 mL/min/kg.

In [2], `CCCSc1ncccc1C(=O)NC1CCC(F)(F)CC1` registered a fraction unbound of 0.29. This compound registered a hepatocyte CLint in data set [3] of 130 µL/min/1e6 cells. This compound showed a bioavailability in data set [4] of 0%. Besides, the clearance in data set [5] was determined as 30 mL/min/kg.

For the compound `CCCSc1nc(N2CCCC(C(=O)O)C2)ccc1C(=O)NC1CCCCC1` (stereo not given), the logD at 0.5 h in [1] (octanol/buffer) was found to be 1.7. The compound further gave a fraction unbound in [2] of 0.023. For the same compound, the hepatocyte CLint in data set [3] turned out to be 6 µL/min/1e6 cells. In [4], this compound yielded a bioavailability of 45%. Further, the clearance in data set [5] is 4 mL/min/kg.

The compound `CCCSc1ncccc1C(=O)N[C@H]1CC[C@@H](C(=O)O)CC1` displayed a logD at 0.5 h in data set [1] (octanol/buffer) of under 0.5. This compound also gave a fraction unbound in [2] of 0.41. In addition, the hepatocyte CLint in data set [3] is under 2 µL/min/1e6 cells. In data set [4], this compound returned a bioavailability of 81%. In [5], the clearance is 2.5 mL/min/kg. Besides, in data set [14], the IC50 (usually the concentration that inhibits the measured activity by half) was over 30 µM.

In data set [1] (octanol/buffer), `CCCOc1nc(N2CCC[C@@H](CC(=O)O)C2)ccc1C(=O)NC1CCCCC1` registered a logD at 0.5 h of 2.8. Besides, in [2], the free fraction (fraction unbound) is 0.006. In [3], this compound registered a hepatocyte CLint of 9 µL/min/1e6 cells. The bioavailability in data set [4] was over 100%. The compound further yielded a clearance in data set [5] of 9 mL/min/kg.

In data set [1] (octanol/water), `CCCN(C)c1nc(N2CCC[C@@H](CC(=O)O)C2)ccc1C(=O)NC1CCCCC1` displayed a logD at 0.5 h of 2.3. The fraction unbound in data set [2] amounted to 0.018. The hepatocyte CLint in data set [3] came to 12 µL/min/1e6 cells. In data set [4], the bioavailability came to 39%. This compound also gave a clearance in [5] of 15 mL/min/kg.

In [2], `CCCSc1nc(N[C@H]2CC[C@H](C(=O)O)CC2)ccc1C(=O)NC1CCCCC1` displayed a fraction unbound of 0.029. This compound displayed a hepatocyte CLint in data set [3] of under 2 µL/min/1e6 cells. This compound gave a bioavailability in [4] of over 100%. The same compound came in with a clearance in [5] of 6 mL/min/kg.

`CCCSc1ncccc1C(=O)N(C)C1CCCCC1`: the logD at 0.5 h in data set [1] (octanol/buffer) was 3.4. In [2], this compound registered an unbound share (fraction unbound) of 0.1. The same compound registered a hepatocyte CLint in data set [3] of over 350 µL/min/1e6 cells. In data set [4], this compound came in with a bioavailability of 0%. The clearance in data set [5] was found to be 48 mL/min/kg.

With `CCCSc1ncccc1C(=O)N(C)[C@H]1[C@@H]2CC3C[C@H]1C[C@@](O)(C3)C2`, the pH-dependent lipophilicity (logD) at 0.5 h in data set [1] (octanol/water) turned out to be 2.5. In data set [2], this compound displayed a fraction unbound of 0.41. Moreover, the hepatocyte CLint in [3] stood at 140 µL/min/1e6 cells.

The compound `CCCSc1nc(N2CCC[C@H](CC(=O)O)C2)ccc1C(=O)NC1CCCCC1` came in with a logD at 0.5 h in data set [1] (octanol/buffer) of 2.2. This compound returned a fraction unbound in data set [2] of 0.006. This compound gave a hepatocyte CLint in [3] of 8 µL/min/1e6 cells. In addition, the bioavailability in [4] was 79%. Further, the clearance in data set [5] is 1 mL/min/kg.
